Assay results: patent US8772576B2, “Herbicide-resistant inoculant strains” (priority 2009, dated 2014)

Key:
[1] = system: parent strain ABM201; experiment: Growth of parent strain on Vincent's YEM agar amended with glyphosate; assay type: cell-based, Bradyrhizobium japonicum
Experimental: (§1) After the plates were sufficiently dry, about 10^8 to 5×10^8 colony-forming units (CFU) of the parent bacteria (ABM201) (Advanced Biological Marketing, Van Wert, Ohio), determined by serial dilution and plating on nonselective medium, were spread with a sterile, bent glass rod. The plates were carefully wrapped with Parafilm® to prevent the desiccation of the agar growth medium during prolonged incubation. The plates were then incubated at room temperature to 30° C. for approximately 2 to 3 weeks.

[2] = system: herbicide resistant mutants of B. japonicum strain ABM 201; experiment: Growth of glyphosate-resistant mutant on Vincent's YEM agar amended with glyphosate; assay type: cell-based, Bradyrhizobium japonicum; details: 80 ppm glyphosate; exemplary embodiment (resistant mutant)
Experimental: as §1
Colonies that developed resembled the parent strain and its growth characteristics on non-selective YEM medium. The colonies were convex, entirely opaque, smooth, and only about 1 mm in diameter after 10-14 days of incubation. Mutant frequency was about 5×10^−7 to 1×10^−6.

O=C(O)CNCP(=O)(O)O [glyphosate, N-(phosphonomethyl)glycine]
glyphosate concentration that totally inhibits the parent strain [1]: less than 40 ppm | growth and viability on glyphosate [2]: normal growth and viability
